Laboratory results: ChEMBL document CHEMBL4138123, “Design, synthesis and biological evaluation of novel pyrazolochalcones as potential modulators of PI3K/Akt/mTOR pathway and inducers of apoptosis in breast cancer cells” (Eur J Med Chem, 2017)

What was measured:
Type in all cases: functional
HT-29 = assay: Cytotoxicity against human HT-29 cells assessed as growth inhibition after 48 hrs by sulforhodamine B assay; settings: HT-29, 48 h
SK-MEL-2 = assay: Cytotoxicity against human SK-MEL-2 cells assessed as growth inhibition after 48 hrs by sulforhodamine B assay; settings: SK-MEL-2, 48 h
NCI-H522 [1] = assay: Cytotoxicity against human NCI-H522 cells assessed as growth inhibition after 48 hrs by sulforhodamine B assay; settings: NCI-H522, 48 h
A498 = assay: Cytotoxicity against human A498 cells assessed as growth inhibition after 48 hrs by sulforhodamine B assay; settings: A498, 48 h
MDA-MB-468 [2] = assay: Cytotoxicity against human MDA-MB-468 cells assessed as growth inhibition after 48 hrs by sulforhodamine B assay; settings: MDA-MB-468, 48 h
BT-549 [3] = assay: Cytotoxicity against human BT549 cells assessed as growth inhibition after 48 hrs by sulforhodamine B assay; settings: BT-549, 48 h
OVCAR-4 [4] = assay: Cytotoxicity against human OVCAR4 cells assessed as cell growth at 0.1 uM after 48 hrs by sulforhodamine B assay relative to control; settings: OVCAR-4, 48 h, read-out: Activity
BT-549 [5] = assay: Cytotoxicity against human BT549 cells assessed as cell growth at 1 uM after 48 hrs by sulforhodamine B assay relative to control; settings: BT-549, 48 h, read-out: Activity
A549 = assay: Cytotoxicity against human A549/ATCC cells assessed as cell growth at 100 uM after 48 hrs by sulforhodamine B assay relative to control; settings: A549, 48 h, read-out: Activity
NCI-H226 [6] = assay: Cytotoxicity against human NCI-H226 cells assessed as cell growth at 1 uM after 48 hrs by sulforhodamine B assay relative to control; settings: NCI-H226, 48 h, read-out: Activity
RXF 393 = assay: Cytotoxicity against human RXF393 cells assessed as cell growth at 0.01 uM after 48 hrs by sulforhodamine B assay relative to control; settings: RXF 393, 48 h, read-out: Activity
MCF7 [7] = assay: Cytotoxicity against human MCF7 cells assessed as cell growth at 10 uM after 48 hrs by sulforhodamine B assay relative to control; settings: MCF7, 48 h, read-out: Activity
NCI/ADR-RES = assay: Cytotoxicity against human NCI/ADR-RES cells assessed as cell growth at 0.1 uM after 48 hrs by sulforhodamine B assay relative to control; settings: read-out: Activity
MDA-MB-468 [8] = assay: Cytotoxicity against human MDA-MB-468 cells assessed as cell growth at 0.1 uM after 48 hrs by sulforhodamine B assay relative to control; settings: MDA-MB-468, 48 h, read-out: Activity
MOLT-4 = assay: Cytotoxicity against human MOLT4 cells assessed as cell growth at 0.1 uM after 48 hrs by sulforhodamine B assay relative to control; settings: MOLT-4, 48 h, read-out: Activity
SNB-19 = assay: Cytotoxicity against human SNB19 cells assessed as cell growth at 0.01 uM after 48 hrs by sulforhodamine B assay relative to control; settings: SNB-19, 48 h, read-out: Activity
OVCAR-4 [9] = assay: Cytotoxicity against human OVCAR4 cells assessed as cell growth at 10 uM after 48 hrs by sulforhodamine B assay relative to control; settings: OVCAR-4, 48 h, read-out: Activity
BT-549 [10] = assay: Cytotoxicity against human BT549 cells assessed as cell growth at 100 uM after 48 hrs by sulforhodamine B assay relative to control; settings: BT-549, 48 h, read-out: Activity
MCF7 [11] = assay: Cytotoxicity against human MCF7 cells assessed as cell growth at 100 uM after 48 hrs by sulforhodamine B assay relative to control; settings: MCF7, 48 h, read-out: Activity
HCC 2998 = assay: Cytotoxicity against human HCC2998 cells assessed as cell growth at 100 uM after 48 hrs by sulforhodamine B assay relative to control; settings: HCC 2998, 48 h, read-out: Activity
HOP-62 = assay: Cytotoxicity against human HOP62 cells assessed as cell growth at 100 uM after 48 hrs by sulforhodamine B assay relative to control; settings: HOP-62, 48 h, read-out: Activity
OVCAR-5 = assay: Cytotoxicity against human OVCAR5 cells assessed as cell growth at 0.1 uM after 48 hrs by sulforhodamine B assay relative to control; settings: OVCAR-5, 48 h, read-out: Activity
ACHN [12] = assay: Cytotoxicity against human ACHN cells assessed as cell growth at 0.1 uM after 48 hrs by sulforhodamine B assay relative to control; settings: read-out: Activity
SK-MEL-5 = assay: Cytotoxicity against human SK-MEL-5 cells assessed as cell growth at 10 uM after 48 hrs by sulforhodamine B assay relative to control; settings: SK-MEL-5, 48 h, read-out: Activity
NCI-H226 [13] = assay: Cytotoxicity against human NCI-H226 cells assessed as cell growth at 0.1 uM after 48 hrs by sulforhodamine B assay relative to control; settings: NCI-H226, 48 h, read-out: Activity
Hs-578T = assay: Cytotoxicity against human Hs 578T cells assessed as cell growth at 100 uM after 48 hrs by sulforhodamine B assay relative to control; settings: read-out: Activity
NCI-H522 [14] = assay: Cytotoxicity against human NCI-H522 cells assessed as cell growth at 100 uM after 48 hrs by sulforhodamine B assay relative to control; settings: NCI-H522, 48 h, read-out: Activity
ACHN [15] = assay: Cytotoxicity against human ACHN cells assessed as cell growth at 1 uM after 48 hrs by sulforhodamine B assay relative to control; settings: read-out: Activity
SR = assay: Cytotoxicity against human SR cells assessed as cell growth at 0.01 uM after 48 hrs by sulforhodamine B assay relative to control; settings: read-out: Activity
Malme-3M = assay: Cytotoxicity against human MALME-3M cells assessed as cell growth at 10 uM after 48 hrs by sulforhodamine B assay relative to control; settings: read-out: Activity
NCI-H460 = assay: Cytotoxicity against human NCI-H460 cells assessed as cell growth at 0.01 uM after 48 hrs by sulforhodamine B assay relative to control; settings: NCI-H460, 48 h, read-out: Activity
T47D [16] = assay: Cytotoxicity against human T47D cells assessed as cell growth at 10 uM after 48 hrs by sulforhodamine B assay relative to control; settings: read-out: Activity
ACHN [17] = assay: Cytotoxicity against human ACHN cells assessed as cell growth at 100 uM after 48 hrs by sulforhodamine B assay relative to control; settings: read-out: Activity
U-251 = assay: Cytotoxicity against human U251 cells assessed as cell growth at 1 uM after 48 hrs by sulforhodamine B assay relative to control; settings: U-251, 48 h, read-out: Activity
T47D [18] = assay: Cytotoxicity against human T47D cells assessed as cell growth at 100 uM after 48 hrs by sulforhodamine B assay relative to control; settings: read-out: Activity
PC-3 = assay: Cytotoxicity against human PC3 cells assessed as cell growth at 100 uM after 48 hrs by sulforhodamine B assay relative to control; settings: PC-3, 48 h, read-out: Activity

With `COc1ccc(-c2cc(/C=C/C(=O)c3ccc4c(c3)OCO4)[nH]n2)cc1OC` the GI50 (HT-29) was 1380 nM, the GI50 (SK-MEL-2) was 2460 nM and the GI50 (NCI-H522 [1]) was 1690 nM. The GI50 (A498) was 1270 nM, the GI50 (MDA-MB-468 [2]) was 1090 nM and the GI50 (BT-549 [3]) was 1440 nM.
In the case of `COc1ccc(C(=O)/C=C/c2cc(-c3ccc(OC)c(OC)c3)n[nH]2)cc1OC`, the growth at 0.1 µM (OVCAR-4 [4]) is reported as 86%, the growth at 1 µM (BT-549 [5]) is reported as 75% and the growth at 100 µM (A549) is reported as -19%. For the same molecule, the growth at 1 µM (NCI-H226 [6]) was 77%, the growth at 0.01 µM (RXF 393) was 94% and the growth at 10 µM (MCF7 [7]) was -5%. The growth at 0.1 µM (NCI/ADR-RES) was 102%, the growth at 0.1 µM (MDA-MB-468 [8]) was 80% and the growth at 0.1 µM (MOLT-4) was 101%. It also gave a growth at 0.01 µM (SNB-19) of 91%, a GI50 (HT-29) of 1380 nM and a TGI (HT-29) of 4950 nM. It also gave a GI50 (SK-MEL-2) of 2460 nM, a TGI (SK-MEL-2) of 5170 nM and a growth at 10 µM (OVCAR-4 [9]) of -7%. The GI50 (NCI-H522 [1]) was 1690 nM, the TGI (NCI-H522 [1]) was 3900 nM and the growth at 100 µM (BT-549 [10]) was -89%. For the same molecule, the growth at 100 µM (MCF7 [11]) was -40%, the growth at 100 µM (HCC 2998) was -91% and the growth at 100 µM (HOP-62) was -13%. For the same molecule, the growth at 0.1 µM (OVCAR-5) was 94%, the growth at 0.1 µM (ACHN [12]) was 96% and the growth at 10 µM (SK-MEL-5) was -97%. It also gave a growth at 0.1 µM (NCI-H226 [13]) of 88%, a growth at 100 µM (Hs-578T) of 18% and a growth at 100 µM (NCI-H522 [14]) of -75%. For the same molecule, the growth at 1 µM (ACHN [15]) was 76%, the growth at 0.01 µM (SR) was 94% and the growth at 10 µM (Malme-3M) was -27%. It also gave a growth at 0.01 µM (NCI-H460) of 102%, a growth at 10 µM (T47D [16]) of -13% and a growth at 100 µM (ACHN [17]) of -60%. For the same molecule, the growth at 1 µM (U-251) was 62%, the growth at 100 µM (T47D [18]) was -9% and the GI50 (A498) was 1270 nM. For the same molecule, the TGI (A498) was 3200 nM, the GI50 (MDA-MB-468 [2]) was 1090 nM and the TGI (MDA-MB-468 [2]) was 2550 nM. It also gave a GI50 (BT-549 [3]) of 1440 nM, a TGI (BT-549 [3]) of 2920 nM and a growth at 100 µM (PC-3) of -4%.
